According to patent US5534554A, “Sucrose ester-C20 to C28 alcohol formulations” (priority 1994, dated 1996):
pEC50: −log10 of the molar value. “Also recorded” adds a separate entry of the source.

Tests used:
Varicella Zoster Virus = assay: Antiviral activity against varicella zoster virus; format: cell-based; conditions: Table 6, human viruses
Cytomegalovirus [1] = assay: Antiviral activity against murine cytomegalovirus; format: cell-based, murine virus; conditions: Table 6, murine viruses
[2] = tested on: recurrent herpes genitalis; assay: Study B: trial in female patients with recurrent herpes genitalis; format: in vivo, human; conditions: all patients
Text: Two clinical efficacy studies have been completed. Study A was a randomized, double-blind, placebo-controlled Phase 2 study in 63 patients (male and female) with recurrent herpes labialis. All of the 31 n-docosanol 10% cream-treated patients in the herpes labialis study, Study A, completed their treatment; 2 of those 31 patients reported a burning or stinging sensation after application of the cream. […] Study B was a randomized, double-blind, placebo-controlled trial in 44 female patients with recurrent herpes genitalis.
In the first clinical study, sixty female patients with recurrent herpes genitalis entered the study while symptom-free and not in a prodromal stage. […]
Three pain analyses were conducted, based on patients' self-assessment of pain: time to sustained "no pain"; time to first "no pain"; and time to first reduction of pain. Time to sustained "no pain" was measured from the time of first pain at application to the time when 1 ) pain was scored as "no pain" for a minimum of 2 consecutive recordings; and 2) during the remainder of the episode, additional pain recordings were no more frequent and severe than 2 separated episodes of 2 consecutive recordings of "mild" pain. […] Time to first reduction in pain was measured from the time of first pain at application to the first time when a decrease in pain level was noted, relative to the previous assessment. […]

[3] = tested on: Herpes simplex virus type 2; assay: Inhibition of HSV type 2 infectivity in simian and human cell lines; format: cell-based, HSV-2
wild-type HSV-2 = assay: Plaque inhibition, wild-type HSV-2 in Vero cells; format: cell-based; conditions: FIG. 7, Panel A
Influenza A = assay: Antiviral activity against influenza A; format: cell-based; conditions: Table 6, human viruses
HSV-2 = format: cell-based
Vero cells [4] = assay: Metabolism of n-[14C]-docosanol in Vero cells (TLC); conditions: sodium azide and 2-deoxyglucose
HSV-1 = assay: Inhibition of HSV-1-induced cutaneous lesions (vesicles) in hairless guinea pigs; format: in vivo; conditions: continued treatment
Text: Burroughs Wellcome Co., Research Triangle Park, N.C.; the current agent of choice for treatment of HSV infections which inhibits activity of viral DNA polymerase) in inhibiting HSV-1-induced cutaneous lesions in hairless guinea pigs. […] To confirm in an experimental animal model the efficacy of n-docosanol cream on HSV-induced lesions, and to compare its activity to that of […], hairless guinea pigs were inoculated with 1×10^6 PFU of HSV-1, and then treated with either n-docosanol-containing or control cream, or […] ointment. The n-docosanol creams were constructed as described. The control cream was constructed in a similar manner except stearic acid was substituted for n-docosanol. Treatment was started either 2 or 48 hours after virus inoculation. The sites were evaluated for vesicle formation, defined as a pus-filled blister, at the indicated time points.

Vero cells [5] = tested on: Vero cells
Vero cells [6] = assay: Cellular uptake and distribution of radiolabeled n-docosanol in Vero cells
HSV [7] = assay: Inhibition of HSV replication, Tetronic versus Pluronic suspensions; format: cell-based
[8] = tested on: Herpes simplex virus type 1; assay: Inhibition of HSV type 1 infectivity in simian and human cell lines; format: cell-based, HSV-1
Vero cells [9] = tested on: Vero cells; remark: listed apart in the source
Human Herpesvirus-6 = assay: Antiviral activity against human herpesvirus-6; format: cell-based
virus = assay: Direct virucidal activity; conditions: n-docosanol suspension
Text: (§1) The collective implications of the results of the studies are that the compound appears to interfere with one or more of the common pathways of viral entry into the cell and migration to the nucleus of infected target cells.

Cytomegalovirus [10] = assay: Antiviral activity against human cytomegalovirus; format: cell-based, human virus; conditions: Table 6, human viruses
HSV [11] = assay: Inhibition of HSV-induced plaques in Vero versus MDBK cells; format: cell-based
HSV [12] = assay: Viral migration to the nucleus (HSV antigens by ELISA, ICP-4 by immunofluorescence); format: cell-based
Text: as §1
Thus, the amounts of both HSV core and envelope protein antigens detectable by ELISA, as well as the numbers of infected cells expressing the intranuclear HSV-specific immediate-early protein, ICP-4, by immunofluorescence, are reduced by more than 80%. Finally, the replication of infectious virions as measured in secondary plaque assay cultures is markedly diminished by 99% or more in n-docosanol-treated cells.

prostate gland = conditions: oral, U.S. Pat. No. 4,186,211; cited from earlier work

CCCCCCCCCCCCCCCCCCCCCCO [n-docosanol]
susceptibility to antiviral activity: Varicella Zoster Virus (Varicella Zoster Virus): susceptible
susceptibility to antiviral activity: Cytomegalovirus (Cytomegalovirus [1]): susceptible
average healing time based on patient ratings ([2]; 10% cream, placebo 4.5): 5.6 days
difference in mean time to healing versus placebo ([2]; p=0.2703): no statistically significant difference
susceptibility to antiviral activity: Herpes Simplex - 2 ([3]; Table 6): susceptible
inhibitory activity in vitro ([3]; suspension in Pluronic F-68): excellent inhibitory activity
inhibition of plaque formation (wild-type HSV-2): inhibit plaque formation by wild type HSV-2 equally
susceptibility to antiviral activity: Influenza A (Influenza A): susceptible
internalization of HSV complete by 20 minutes (HSV-2; after shift to 37° C.): less than 40%
time to completion of internalization (HSV-2; after shift to 37° C.): more than 1 hour
persistence of bound HSV virions on the cell surface (HSV-2; in the presence of n-docosanol): remain on the cell surface for a prolonged time period
reduction of metabolic conversion into polar metabolites by energy poisons (Vero cells [4]): 80%
vesicle number at the 72 hour time point (HSV-1): many fewer vesicles
counts migrating in the region of phosphatidylcholine (Vero cells [5]): approximately 62%
counts migrating in the region of phosphatidylethanolamine (Vero cells [5]): ~38%
levels of metabolic conversion, Tetronic relative to Pluronic (Vero cells [5]): 3 fold
metabolic conversion (Vero cells [5]): progressively metabolized to polar compounds
radioactivity in the soluble cytoplasmic fraction (Vero cells [6]; after 12 hours of exposure): the balance of radioactivity
actual bioactive dose relative to the dose shown in FIGS. 7 and 9 (Vero cells [6]; cultures, from uptake studies): 1/1000
reduction of uptake of n-docosanol by energy poisons (Vero cells [6]; sodium azide and 2-deoxyglucose, Vero cells): 90%
ED50 in Pluronic relative to Tetronic (HSV [7]; suspended in Pluronic F-68): approximately 3 times
pEC50 (HSV [7]; suspended in Tetronic 908, read-out: ED50 for inhibition of HSV replication): 2.00 to 2.30
susceptibility to antiviral activity: Herpes Simplex - 1 ([8]; Table 6): susceptible
inhibitory activity in vitro ([8]; suspension in Pluronic F-68): excellent inhibitory activity
fraction of total n-docosanol cell-associated (Vero cells [9]): less than 1%
molecules per cell (Vero cells [9]): ~8×10^9 molecules per cell
radioactive compound in cell membranes (Vero cells [9]): 75%
radioactive compound in nuclear fractions (Vero cells [9]): less than 1%
reversibility of cell association (Vero cells [9]): irreversible
time of peak uptake per cell (Vero cells [9]): 6 to 12 h
total uptake, Tetronic versus Pluronic suspension (Vero cells [9]): equivalent
inhibition of in vitro replication of human herpes virus 6 (Human Herpesvirus-6): inhibits in vitro replication
susceptibility to antiviral activity: Human Herpesvirus-6 (Human Herpesvirus-6; Table 6, human viruses): susceptible
direct virucidal activity (virus): no direct virucidal activity
susceptibility to antiviral activity: Cytomegalovirus (Cytomegalovirus [10]): susceptible
effectiveness in inhibiting HSV-induced plaques, Vero relative to MDBK cells (HSV [11]): 3-4 fold
viral migration to the cell nucleus (HSV [12]): significantly inhibited; also recorded: substantially blocked
reduction of HSV core protein antigen (HSV [12]; ELISA): more than 80%
reduction of HSV envelope protein antigen (HSV [12]; ELISA): more than 80%
reduction of number of infected cells expressing ICP-4 (HSV [12]; immunofluorescence): more than 80%
treatment of enlargement of the prostate gland (prostate gland): therapeutically effective
